Each structure is given as a SMILES string. Where only a bound is given, the exact number is not on record here.

The target of the first test is recombinant PIM-1 (Homo sapiens, UniProt P11309). The test is described as follows: PIM-1 kinase assay (radiometric, 15 uM ATP, DMSO 4%). It is filed as biochemical.
Sequence of recombinant PIM-1 (P11309 whole entry): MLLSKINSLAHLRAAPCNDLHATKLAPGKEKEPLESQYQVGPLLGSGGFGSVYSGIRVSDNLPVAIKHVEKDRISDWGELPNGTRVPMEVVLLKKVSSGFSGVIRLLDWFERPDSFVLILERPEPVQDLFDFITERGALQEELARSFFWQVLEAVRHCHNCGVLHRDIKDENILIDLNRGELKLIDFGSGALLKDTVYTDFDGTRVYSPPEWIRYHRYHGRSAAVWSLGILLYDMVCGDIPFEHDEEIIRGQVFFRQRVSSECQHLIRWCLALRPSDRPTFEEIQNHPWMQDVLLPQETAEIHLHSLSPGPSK
Settings: not given
As to the method: The following procedure was used to assay the PIM-1 kinase activity of compounds of the invention. Other methods for assaying PIM-1 and other PIM kinases, as well as methods to assay for activity against the various kinases in FIG. 1, are known in the art.
(specific activity approx. 500 cpm/pmol), DMSO 4% and test inhibitor compound at the required concentration. The reaction was initiated by the addition of the Magnesium ATP mixture. After 40 min incubation at 23° C., the reactions were quenched by the addition of 100 ul 0.75% Phosphoric acid, and the labeled peptide collected by filtration through a phosphocellulose filter plate. The plate was washed 4 times with 0.075% phosphoric acid (100 ul per well) and then, after the addition of scintillation fluid (20 ul per well), the counts were measured by a scintillation counter.
As to `CCC(=O)Nc1cc(C(=O)NCCN2CCCC2)ccc1-c1ccc(/C=C2/C(=O)Nc3ccccc32)o1` [Compound 168], the inhibition at 2 µM was -14.9%.

Still in this test, the particulars now being: Table 1; % inhibition at the high dose (2 micromolar) in a single screening assay; 15 μM ATP.
Regarding `O=C1Nc2ccc(Cl)cc2/C1=C\c1ccc(-c2cccc(C(=O)N3CCCC(O)C3)c2)o1` (centres unmarked) [Compound 178], the inhibition at 2 µM is -19.4%.

In the case of `CN1CCCC(NC(=O)c2cccc(-c3coc(/C=C4/C(=O)Nc5ccc(F)cc54)c3)c2)C1` (centres unmarked) [Compound 89], the inhibition at 2 µM turned out to be 6.1%.

In the case of `CCCC(=O)Nc1cc(C(=O)NCCN2CCCC2)ccc1-c1ccc(/C=C2/C(=O)Nc3ccccc32)o1` [Compound 169], the inhibition at 2 µM is -29.9%.

For the compound `O=C1Nc2ccccc2/C1=C\c1ccc(-c2ccc(Cl)c(C(=O)NCCN3CCCC3)c2)o1` [Compound 11], the inhibition at 2 µM turned out to be 5.6%.

Turning to `CN(C)c1ccc(CNC(=O)c2cccc(-c3ccc(/C=C4/C(=O)Nc5ccc(Cl)cc54)o3)c2)cc1` [Compound 177], the inhibition at 2 µM amounted to 10.9%.

In the case of `O=C1CN(C(=O)c2cccc(-c3ccc(/C=C4/C(=O)Nc5ccccc54)o3)c2)CCN1` [Compound 23], the inhibition at 2 µM is -14.2%.

Take `Cn1ccnc1CNC(=O)c1cccc(-c2ccc(/C=C3/C(=O)Nc4ccc(Cl)cc43)o2)c1` [Compound 119]: the inhibition at 2 µM amounted to 37%.

For `CN1CCCC(NC(=O)c2ccccc2-c2ccc(/C=C3/C(=O)Nc4ccccc43)o2)C1` (centres unmarked) [Compound 56], the inhibition at 2 µM was 13.8%.

`O=C1Nc2ccc(Cl)cc2/C1=C\c1ccc(-c2cccc(C(=O)NCCc3ccccn3)c2)o1` [Compound 172]: the inhibition at 2 µM is 29.3%.

As for `CN1CCCCC1CNC(=O)c1cccc(-c2coc(/C=C3/C(=O)Nc4ccc(F)cc43)c2)c1` (centres unmarked) [Compound 93], the inhibition at 2 µM amounted to 9.42%.

As to `CN1CCCCC1CNC(=O)c1cccc(-c2ccc(/C=C3/C(=O)Nc4ccc(C#N)cc43)o2)c1` (centres unmarked) [Compound 46], the inhibition at 2 µM is -0.36%.

On to `O=C1Nc2ccc(C(=O)NC3CC3)cc2/C1=C\c1ccc(-c2cccc(C(=O)NCCN3CCCC3)c2)o1` [Compound 9], for which the inhibition at 2 µM is 37.2%.

`CN1CCCC(NC(=O)c2ccc(-c3ccc(/C=C4/C(=O)Nc5ccc(F)cc54)o3)cc2)C1` (centres unmarked) [Compound 85]: the inhibition at 2 µM was determined as 84.5%.

Take `O=C1Nc2ccc(F)cc2/C1=C\c1cc(-c2cccc(C(=O)NCc3ccncc3)c2)co1` [Compound 95]: the inhibition at 2 µM was -19.1%.

In the case of `Cc1cnc(CNC(=O)c2cccc(-c3ccc(/C=C4/C(=O)Nc5ccc(F)cc54)o3)c2)cn1` [Compound 18], the inhibition at 2 µM was determined as 42.3%.

For the compound `O=C1Nc2ccc(C(F)(F)F)cc2/C1=C\c1ccc(-c2cccc(C(=O)NCCN3CCCC3)c2)o1` [Compound 47], the inhibition at 2 µM was found to be 22.9%.

Regarding `O=C1Nc2ccccc2/C1=C\c1ccc(-c2ccccc2C(=O)NCCN2CCCC2)o1` [Compound 54], the inhibition at 2 µM stood at 3.52%.

With `CN1CCCC(NC(=O)c2ccc(-c3ccc(/C=C4/C(=O)Nc5ccccc54)o3)cn2)C1` (centres unmarked) [Compound 129], the inhibition at 2 µM came out at 1.44%.

For `O=C1Nc2ccccc2/C1=C\c1ccc(-c2ccc(C(=O)NCCN3CCCC3)nc2)o1` [Compound 128], the inhibition at 2 µM is 27.2%.

For the compound `O=C1Nc2c(Cl)cccc2/C1=C\c1ccc(-c2ccc(Cl)c(C(=O)NCCN3CCCC3)c2)o1` [Compound 105], the inhibition at 2 µM is -16.7%.

Regarding `CN1CCN(C(=O)c2cccc(-c3ccc(/C=C4/C(=O)Nc5ccc(Cl)cc54)o3)c2)CC1` [Compound 114], the inhibition at 2 µM is 23%.

As for `CN(CCN1CCCC1)C(=O)c1ccccc1-c1ccc(/C=C2/C(=O)Nc3ccccc32)o1` [Compound 55], the inhibition at 2 µM was 2.91%.

Take `Cn1cncc1CNC(=O)c1ccccc1-c1ccc(/C=C2/C(=O)Nc3ccccc32)o1` [Compound 59]: the inhibition at 2 µM was -4.35%.

In the case of `O=C1Nc2ccccc2/C1=C\c1ccc(-c2ccccc2C(=O)O)o1` [Compound 31], the inhibition at 2 µM amounted to 11.4%.

For the compound `CN1CCCCC1CNC(=O)c1ccccc1-c1ccc(/C=C2/C(=O)Nc3ccccc32)o1` (centres unmarked) [Compound 60], the inhibition at 2 µM amounted to 0.33%.

Take `O=C1Nc2ccccc2/C1=C\c1ccc(-c2ccc(Cl)c(C(=O)NCCC3CCCN3)c2)o1` (centres unmarked) [Compound 28]: the inhibition at 2 µM was -37.6%.

In the case of `CN1CCC(N(C)C(=O)c2ccc(-c3ccc(/C=C4/C(=O)Nc5ccc(F)cc54)o3)cc2)C1` (centres unmarked) [Compound 83], the inhibition at 2 µM stood at 54.8%.

On to `O=C1Nc2ccc(Cl)cc2/C1=C\c1ccc(-c2cccc(C(=O)NCCN3CCCC3)c2)o1` [Compound 43], for which the inhibition at 2 µM came out at 32.7%.

As to `O=C1Nc2ccccc2/C1=C\c1ccc(-c2ccc(C(=O)NCCN3CCCC3)c(F)c2)o1` [Compound 159], the inhibition at 2 µM is 11.3%.

`O=C1Nc2ccc(F)cc2/C1=C\c1ccc(-c2ccc(C(=O)NCCN3CCCC3)cc2)o1` [Compound 81]: the inhibition at 2 µM was 94.8%.

With `CCN(CC)C(=O)c1cccc(-c2ccc(/C=C3/C(=O)Nc4ccc(Cl)cc43)o2)c1` [Compound 173], the inhibition at 2 µM was 29.2%.

Consider `CN1CCCN(C(=O)c2ccc(-c3ccc(/C=C4/C(=O)Nc5ccccc54)o3)cc2F)CC1` [Compound 160], for which the inhibition at 2 µM was -17.1%.

Take `CN1CCC(N(C)C(=O)c2cc(-c3ccc(/C=C4/C(=O)Nc5ccc(F)cc54)o3)ccc2Cl)C1` (centres unmarked) [Compound 72]: the inhibition at 2 µM is 37.1%.

Staying with this test, now noted: Table 1; given for compounds with IC50 at or below 2 micromolar; 15 uM ATP; read-out: PIM-1 IC50.
On to `CCN1CCCC1CNC(=O)c1cccc(-c2ccc(/C=C3/C(=O)Nc4ccc(Cl)cc43)o2)c1` (centres unmarked) [Compound 112], for which the half-maximal inhibitory concentration (IC50) was less than 1 µM.

For the compound `C/C(=C1\C(=O)Nc2ccccc21)c1ccc(-c2cccc(C(=O)NCCN3CCCC3)c2)o1` [Compound 156], the IC50 was less than 2 µM.

Take `Nc1cccc(-c2ccc(/C=C3/C(=O)Nc4ccccc43)o2)c1` [Compound 183]: the half-maximal inhibitory concentration (IC50) was less than 2 µM.

For `CN1CCCC(NC(=O)c2ccc(-c3ccc(/C=C4/C(=O)Nc5ccc(F)cc54)o3)cc2)C1` (centres unmarked) [Compound 85], the IC50 is less than 2 µM.

Take `CN1CCC(N(C)C(=O)c2ccc(Cl)c(-c3ccc(/C=C4/C(=O)Nc5ccc(F)cc54)o3)c2)C1` (centres unmarked) [Compound 99]: the concentration for half-maximal inhibition (IC50) was less than 1 µM.

Consider `Nc1cc(C(=O)NCCN2CCCC2)ccc1-c1ccc(/C=C2/C(=O)Nc3ccccc32)o1` [Compound 144], for which the IC50 was less than 1 µM.

With `CCN(CC)CCC(=O)Nc1cccc(-c2ccc(/C=C3/C(=O)Nc4ccccc43)o2)c1` [Compound 185], the IC50 is less than 1 µM.

Take `O=C1Nc2ccc(Cl)cc2/C1=C\c1ccc(-c2cccc(C(=O)NCC(O)c3ccccn3)c2)o1` (centres unmarked) [Compound 188]: the IC50 is less than 1 µM.

On to `CN1CCCC1N(C)C(=O)c1ccc(-c2ccc(/C=C3/C(=O)Nc4ccccc43)o2)cc1` (centres unmarked) [Compound 33], for which the IC50 was less than 1 µM.

Regarding `CCN1CCCC1CNC(=O)c1cncc(-c2ccc(/C=C3/C(=O)Nc4ccc(Cl)cc43)o2)c1` (centres unmarked) [Compound 150], the IC50 was less than 1 µM.

In the case of `NC(=O)c1cccc(-c2ccc(/C=C3/C(=O)Nc4ccccc43)o2)c1` [Compound 166], the IC50 was less than 1 µM.

As for `CN1CCCN(C(=O)c2cncc(-c3ccc(/C=C4/C(=O)Nc5ccc(Cl)cc54)o3)c2)CC1` [Compound 154], the IC50 was less than 1 µM.

On to `CN1CCC(N(C)C(=O)c2ccc(-c3ccc(/C=C4/C(=O)Nc5ccc(F)cc54)o3)cc2)C1` (centres unmarked) [Compound 83], for which the IC50 was less than 1 µM.

Take `O=C1Nc2ccc(F)cc2/C1=C\c1ccc(-c2ccc(C(=O)NCCN3CCCC3)cc2)o1` [Compound 81]: the IC50 was less than 1 µM.

With `Cc1cc(-c2cccc(C(=O)NCCN3CCCC3)c2)oc1/C=C1/C(=O)Nc2ccccc21` [Compound 157], the IC50 is less than 2 µM.

The same test, now with this note: Table 3; DMSO 4%; read-out: PIM1: IC50 (DMSO 4%).
Regarding `CN1CCCN(C(=O)c2cccc(-c3ccc(/C(=C4/C(=O)Nc5ccc(Cl)cc54)C4CC4)o3)c2)CC1`, the IC50 is greater than 1.1 µM.

(Values after patent US20120190669A1, “OXINDOLE COMPOUNDS” (CYLENE PHARMACEUTICALS, INC., priority 2008, published 2012).)
